The text below walks through data of PMC10743905, “Design, Synthesis, and In Vitro and In Vivo Bioactivity Studies of Hydrazide–Hydrazones of 2,4-Dihydroxybenzoic Acid” (International Journal of Molecular Sciences, 2023).

≈ marks a conversion by molar mass, not a printed value.

One assay relates to 769-P. In words: MTT antiproliferative assay. The class given is cell-based, human. The conditions noted are these: for IC50: Homo sapiens, 769-P, MTT, 24 h incubation, renal adenocarcinoma; for Selectivity Index: ratio IC50 HEK-293 / IC50 769-P. The procedure: (§1) The in vitro studies were performed on the reference line HEK-293 (human embryonic kidney cells, ATCC® CRL-1573™) and […] human cancer cell lines: 769-P (adenocarcinoma, renal cells, ATCC® CRL-1933™) and HepG2 (carcinoma, hepatocellular, ATCC® HB-8065™), H1563 (adenocarcinoma, non-smallcell lung cancer, ATCC® CRL-5875™), LN-229 (glioblastoma, ATCC® CRL-2611™). Cells from the 769-P and H1563 cell lines were cultured in RPMI-1640 growth medium (PAN Biotech GmbH, Aidenbach, Bayern, Germany), cells from the HEK-293 and HepG2 cell lines were cultured in EMEM growth medium (PAN Biotech GmbH, Aidenbach, Bayern, Germany), and cells from the LN-229 cell line were cultured in DMEM growth medium (PAN Biotech GmbH, Aidenbach, Bayern, Germany) in sterile 75 cm^2 culture phalcones. Fetal bovine serum (PAN Biotech GmbH, Aidenbach, Bayern, Germany) at 10% of growth medium and antibiotics (Sigma-Aldrich, Poland) (2.5 µg/mL amphotericin B, 100 µg/mL penicillin, and 100 µg/mL streptomycin) were added to all media. Cells were cultured at 37 °C in an incubator with 5% CO2 flow until a cell layer was formed. Following this, the medium was removed, and the cells were washed with 0.25% trypsin solution with 2.21 mM EDTA (Corning Incorporated, Corning, NY, USA) in order to completely remove fetal bovine serum containing trypsin inhibitor. Finally, 6 mL of complete growth medium was added, and the cells were aspirated by gentle pipetting.
(§2) The determination of inhibitory concentration (IC50) in the HEK-293, 769-P, HepG2, H1563, and LN-229 cell cultures for selected hydrazide–hydrazones was performed using the MTT assay procedure. This test was performed according to the MTT Assay ECVAM n°17 protocol manual prepared by the European Centre for the Validation of Alternative Methods (ECVAM), an entity that aims to reduce in vivo testing in favor of in vitro and in silico methods. To 96-well sterile plates, 100 μL of cell suspensions, prepared in the appropriate medium at a concentration of 3 × 10^5 cells/mL, was added using a multichannel pipette. To achieve cell adhesion to the bottom of the plates, cells were incubated for 24 h at 37 °C with 5% CO2 flow and 90% humidity. To determine the growth-inhibitory concentration, the solutions of the tested substances (19–24) were prepared at concentrations ranging from 1 µM to 500 µM, added individually to the wells following the rule of 8 wells per concentration, and the plates were again incubated for 24 h at 37 °C and with 5% CO2 addition. We also prepared a background control (200 μL of the respective growth medium) and negative control (100 μL of cells in the appropriate growth medium + 100 μL of the growth medium), which provided information on the amount of formazan formed in the untreated cells. After a 24 h incubation period, the solutions were extracted from the cells; 190 μL of growth medium and 10 μL of 5 mg/mL MTT solution (Invitrogen, Waltham, MA, USA) were added each and incubated for 4 h. After this time, all medium was removed, 100 μL of DMSO (Corning Incorporated, Corning, NY, USA) was added to each well, and absorbance measurements were performed at 550 nm using a Power Weave xs spectrophotometric microplate reader (BioTek, Winooski, VT, USA). The decrease in absorbance is equivalent to the decrease in MTT formazan production, which is due to the decrease in mitochondrial dehydrogenase activity and indicates a cytotoxic effect from the tested substances. Cell viability is expressed as a percentage as the ratio of the absorbance of test substance-treated cells to the untreated cells. The experiments were repeated three times.
(§3) The significance level was taken as p < 0.05.

The subject of another assay is H1563. In words: MTT antiproliferative assay. The class given is cell-based, human. The conditions noted are these: for IC50: MTT, 24 h incubation, lung adenocarcinoma; for Selectivity Index: ratio IC50 HEK-293 / IC50 H1563. The procedure:
as §1, §2, §3

For the next assay, the system named is LN-229. The experiment in a line: MTT antiproliferative assay. The class given is cell-based, human. The conditions noted are these: for IC50: Homo sapiens, LN-229, MTT, 24 h incubation, glioblastoma; for Selectivity Index: ratio IC50 HEK-293 / IC50 LN-229. The procedure:
as §1, §2, §3

In the next assay the test system is Gram-negative bacteria. In words: Broth microdilution, summary over the Gram-negative panel. The class given is cell-based. The method, boiled down: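 MH broth (bact.) / RPMI 1640+MOPS (fungi); 2-fold dilutions, final 1000–0.488 µg/ml; inoculum 0.5 McFarland in 0.85% NaCl; compounds in DMSO; EUCAST/CLSI.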
The next assay deals with HepG2. In words: MTT antiproliferative assay. The class given is cell-based. The conditions noted are these: Homo sapiens, 24 h incubation, hepatocellular carcinoma. The procedure: as §1
The determination of inhibitory concentration (IC50) in the HEK-293, 769-P, HepG2, H1563, and LN-229 cell cultures for selected hydrazide–hydrazones was performed using the MTT assay procedure. This test was performed according to the MTT Assay ECVAM n°17 protocol manual prepared by the European Centre for the Validation of Alternative Methods (ECVAM), an entity that aims to reduce in vivo testing in favor of in vitro and in silico methods. To 96-well sterile plates, 100 μL of cell suspensions, prepared in the appropriate medium at a concentration of 3 × 10^5 cells/mL, was added using a multichannel pipette. To achieve cell adhesion to the bottom of the plates, cells were incubated for 24 h at 37 °C with 5% CO2 flow and 90% humidity. […] After this time, all medium was removed, 100 μL of DMSO (Corning Incorporated, Corning, NY, USA) was added to each well, and absorbance measurements were performed at 550 nm using a Power Weave xs spectrophotometric microplate reader (BioTek, Winooski, VT, USA). The decrease in absorbance is equivalent to the decrease in MTT formazan production, which is due to the decrease in mitochondrial dehydrogenase activity and indicates a cytotoxic effect from the tested substances. Cell viability is expressed as a percentage as the ratio of the absorbance of test substance-treated cells to the untreated cells. […]

Regarding `O=C(N/N=C/c1ccccc1Br)c1ccc(O)cc1O` [Compound 23, N-[(2-bromophenyl)methylidene]-2,4-dihydroxybenzohydrazide], the half-inhibitory concentration (IC50) is greater than 500 µM with 769-P; 101 µM in the assay with H1563 (Homo sapiens, NCI-H1563, 24 h); 157 µM with LN-229. Moreover, the figures for the “Selectivity Index” value in the assay with H1563 and in the assay with LN-229 were 9.08 × 10^2 and 5.85 × 10^2, respectively.
In the assay with Gram-negative bacteria, `O=C(N/N=C/c1cc(I)cc(I)c1O)c1ccc(O)cc1O` [Compound 18, 2,4-dihydroxy-N-[(2-hydroxy-3,5-diiodophenyl)methylidene]benzohydrazide] displayed an MBC greater than 1000 µg/mL and an MIC of 500 to 1000 µg/mL (≈ 954 to 1910 µM).
For `CCCc1ccc(/C=N/NC(=O)c2ccc(O)cc2O)cc1` [Compound 13, 2,4-dihydroxy-N-[(4-propylphenyl)methylidene]benzohydrazide] the same measures were greater than 1000 µg/mL and 500 to 1000 µg/mL (≈ 1680 to 3350 µM).
For `O=C(N/N=C/c1ccc([N+](=O)[O-])cc1)c1ccc(O)cc1O` [Compound 21, 2,4-dihydroxy-N-[(4-nitrophenyl)methylidene]benzohydrazide], the IC50 in the assay on HepG2 is 7.81 µM; in the assay on 769-P, 12.4 µM; in the assay with H1563 (Homo sapiens, NCI-H1563, 24 h), greater than 500 µM; with LN-229 it was 0.77 µM.
Take `O=C(N/N=C/c1ccccc1F)c1ccc(O)cc1O` [Compound 24, N-[(2-fluorophenyl)methylidene]-2,4-dihydroxybenzohydrazide]: the IC50 with HepG2 was greater than 500 µM; in the assay with 769-P it was greater than 500 µM; in the assay on H1563 (Homo sapiens, NCI-H1563, 24 h), 200 µM; in the assay with LN-229, 199 µM. Also, the “Selectivity Index” value in the assay on H1563 and in the assay with LN-229 was 1.94 throughout.
Compound `O=C(N/N=C/c1ccccc1[N+](=O)[O-])c1ccc(O)cc1O` [Compound 19, 2,4-dihydroxy-N-[(2-nitrophenyl)methylidene]benzohydrazide] returned a minimal inhibitory concentration (MIC) against Gram-negative bacteria of 500 to 1000 µg/mL (≈ 1660 to 3320 µM). The concentration for half-maximal inhibition (IC50) in the assay with HepG2 is greater than 500 µM; with 769-P it was 45.4 µM; with H1563 (Homo sapiens, NCI-H1563, 24 h), 65.7 µM; in the assay with H1563, 65.6 µM; in the assay on LN-229, 130 µM. For the same compound, the “Selectivity Index” value in the assay on 769-P is on record as 3.29 × 10^3; in the assay with H1563, 2.27 × 10^3; in the assay with LN-229, 1.14 × 10^3.
Take `O=C(N/N=C/c1cccc([N+](=O)[O-])c1)c1ccc(O)cc1O` [Compound 20, 2,4-dihydroxy-N-[(3-nitrophenyl)methylidene]benzohydrazide]: the 50% inhibitory concentration (IC50) with HepG2 was greater than 500 µM; with 769-P, greater than 500 µM; in the assay with H1563 (Homo sapiens, NCI-H1563, 24 h) it was 70.9 µM; in the assay with LN-229, greater than 500 µM. Also, the “Selectivity Index” value in the assay on H1563 is recorded as 1.89 × 10^2.
Regarding `O=C(N/N=C/c1ccccc1Cl)c1ccc(O)cc1O` [Compound 22, N-[(2-chlorophenyl)methylidene]-2,4-dihydroxybenzohydrazide], the 50% inhibitory concentration (IC50) with 769-P was 262 µM; in the assay on H1563 (Homo sapiens, NCI-H1563, 24 h), 217 µM; with LN-229, 111 µM. The “Selectivity Index” value in the assay with 769-P was 1.20; in the assay with H1563, 1.45; in the assay on LN-229 it was 2.85.
